We go through 16 compounds from article PMC7435983, “Galantamine-Curcumin Hybrids as Dual-Site Binding Acetylcholinesterase Inhibitors” (Molecules, 2020).

Data set [1] concerns Neuro-2A cells. Nature of the data set: Neurotoxicity test, MTT-dye reduction assay. The data set is classed as cell-based, Murine. The conditions noted are these: Mus musculus, N2a, 72-h incubation. How it is done:
The neurotoxicity of the GAL-CU hybrids was tested on Neuro-2A cells, as described in Materials and methods. […] Only five of the hybrids were less toxic than CU. One of them, compound 8b, is among the best-scored compounds; two of them, compounds 4e and 4f, are from the middle GoldScore range; and two of them, compounds 4a and 4b, belong to the low GoldScore range.
Murine neuroblastoma Neuro-2A cells (German collection DSMZ, Braunschweig, Germany) were cultivated under standard conditions: complete medium (90% DMEM, 10% heat-inactivated FBS, and non-essential amino acids); 37 °C and 5% CO2 in fully humidified atmosphere. The cell line was kept in the logarithmic growth phase by splitting 1:4 once a week using trypsin/EDTA. About 30% of the cells grew like neuronal cells. For the experimental evaluation of the cytotoxicity Neuro-2A, cells were plated in 96-well flat-bottomed cell culture plates at the recommended density of 1 × 10^6 cells/25cm^2. After 24 h, the cells were treated with various concentrations of the investigational compounds, and after 72-h incubation, an MTT-dye reduction assay was performed. Briefly, at the end of incubation, an MTT stock solution (10mg/mL in PBS) was added (0.01 mL/well). Plates were further incubated at 37 °C for 4 h. Next, the formazan crystals were dissolved by the addition of 0.110 mL/well 5% formic acid in 2-propanol (v/v). Absorption was measured at 580nm wavelength on an automated ELISA reader Labexim LMR1. At least six wells per concentration were used, and data were processed using the GraphPad Prism 5.0 software 2.0 (San Diego, CA, USA).

For data set [2], the target named is eeAChE (Electrophorus electricus AChE) (Electrophorus electricus, UniProt O42275). Nature of the data set: biochemical. How it is done: As the docking studies were performed on rhAChE, while for the in vitro measurements was used AChE from electric eel (eeAChE), it was reasonably to question their relevance.
Sequence of eeAChE (Electrophorus electricus AChE) (O42275 24-633): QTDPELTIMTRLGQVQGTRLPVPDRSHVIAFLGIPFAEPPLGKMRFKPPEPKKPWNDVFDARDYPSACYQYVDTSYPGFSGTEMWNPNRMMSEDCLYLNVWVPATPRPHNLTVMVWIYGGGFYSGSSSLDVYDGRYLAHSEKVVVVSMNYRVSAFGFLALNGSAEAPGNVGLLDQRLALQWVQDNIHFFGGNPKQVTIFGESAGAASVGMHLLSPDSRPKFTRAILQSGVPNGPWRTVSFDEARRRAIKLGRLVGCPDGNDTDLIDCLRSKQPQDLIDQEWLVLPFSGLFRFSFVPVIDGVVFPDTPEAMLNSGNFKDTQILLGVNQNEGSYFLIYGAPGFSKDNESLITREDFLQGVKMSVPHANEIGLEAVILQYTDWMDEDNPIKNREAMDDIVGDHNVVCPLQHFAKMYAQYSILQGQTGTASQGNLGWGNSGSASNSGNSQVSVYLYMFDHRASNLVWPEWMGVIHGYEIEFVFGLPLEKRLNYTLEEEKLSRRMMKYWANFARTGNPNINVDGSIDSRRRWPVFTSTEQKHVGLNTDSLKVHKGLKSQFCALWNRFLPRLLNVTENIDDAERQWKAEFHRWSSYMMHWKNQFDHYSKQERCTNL
AChE activity was assayed as described by Ellman et al., with some modifications. […] The mixtures were incubated for 30 min at room temperature before the addition of 30 μL of the substrate solution (15 μL […], 15 μL 0.6 mM ATCI in buffer, pH 7.6).

The nature of data set [3]: Prediction of PK parameters by QSPR models. From the text: The key PK parameters were predicted by quantitative […] (QSPRs) models derived previously. Three PK parameters were modelled: the steady state volume of distribution (VD^ss), free fraction of drug in plasma (fu) and unbound clearance (CLu). […]
Data set [4] relates to Neuro-2A cells. The conditions noted are these: cited from earlier work.
For data set [5] the following is noted: cited from earlier work.

Usually IC50 stands for the midpoint of a concentration-inhibition curve. As a reminder, the half-life is the time needed for the level to fall by half in the phase considered.

Where two headings read alike, the source gives them in different places. Marks after values point to notes of the source that are not given here.

On to `COc1ccc2c3c1O[C@H]1C[C@@H](O)C=C[C@@]31CCN(CCCCC(=O)/C=C/c1ccccc1)C2` [4a], for which, in data set [1], the IC50 came to 30.7 µM. In addition, in data set [2], half-maximal inhibition (IC50) required 0.046 µM and the “Times More Active Than GAL” value was found to be 75.

`COc1ccc(/C=C/C(=O)CCCCN2CC[C@@]34C=C[C@H](O)C[C@@H]3Oc3c(OC)ccc(c34)C2)cc1` [4b] showed an IC50 in data set [1] of 52.5 µM. Further, in data set [2], the IC50 amounted to 0.02 µM and the “Times More Active Than GAL” value is 186.

As to `COc1cccc(/C=C/C(=O)CCCCN2CC[C@@]34C=C[C@H](O)C[C@@H]3Oc3c(OC)ccc(c34)C2)c1` [4c], the IC50 in data set [1] is 24.1 µM.

As to `COc1ccc2c3c1O[C@H]1C[C@@H](O)C=C[C@@]31CCN(CCCCC(=O)/C=C/c1ccc3c(c1)OCO3)C2` [4e], the figures for the IC50 in data set [1] and in data set [2] were 42.9 µM and 0.036 µM, respectively. Moreover, in data set [2], the “Times More Active Than GAL” value worked out at 98.

For `COc1ccc2c3c1O[C@H]1C[C@@H](O)C=C[C@@]31CCN(CCCCC(=O)/C=C/c1ccc(C)cc1)C2` [4f], the results for the IC50 in data set [1] and in data set [2] were 34.4 µM and 0.033 µM, respectively. The “Times More Active Than GAL” value in data set [2] came to 110.

In the case of `COc1ccc2c3c1O[C@H]1C[C@@H](O)C=C[C@@]31CCN(CCCCC(=O)/C=C/c1cccc(C)c1)C2` [4g], in data set [1], the IC50 worked out at 23.7 µM.

Turning to `COc1ccc2c3c1O[C@H]1C[C@@H](O)C=C[C@@]31CCN(CCCCC(=O)/C=C/c1ccc(C)c(C)c1)C2` [4h], in data set [1], inhibition was half-maximal at 21.9 µM (IC50).

The compound `COc1ccc2c3c1O[C@H]1C[C@@H](O)C=C[C@@]31CCN(Cc1cccc(/C=C/C(=O)c3ccccc3)c1)C2` [6a] displayed an IC50 in data set [1] of 12.1 µM.

In data set [1], `COc1ccc(C(=O)/C=C/c2cccc(CN3CC[C@@]45C=C[C@H](O)C[C@@H]4Oc4c(OC)ccc(c45)C3)c2)cc1` [6b] had an IC50 of 7.91 µM.

For the compound `COc1ccc(/C=C/C(=O)c2cccc(CN3CC[C@@]45C=C[C@H](O)C[C@@H]4Oc4c(OC)ccc(c45)C3)c2)cc1` [8b], it took 28.9 µM to reach half-maximal inhibition in data set [1] (IC50). In data set [2], the 50% inhibitory concentration (IC50) is 0.086 µM and the “Times More Active Than GAL” value worked out at 41.

With `COc1cccc(/C=C/C(=O)c2cccc(CN3CC[C@@]45C=C[C@H](O)C[C@@H]4Oc4c(OC)ccc(c45)C3)c2)c1` [8c], the midpoint of inhibition in data set [1], the IC50, lay at 25.6 µM.

Compound `COc1ccc2c3c1O[C@H]1C[C@@H](O)C=C[C@@]31CCN(Cc1cccc(C(=O)/C=C/c3ccc(C)cc3)c1)C2` [8f] displayed an IC50 in data set [1] of 24.3 µM.

`COc1ccc2c3c1O[C@H]1C[C@@H](O)C=C[C@@]31CCN(Cc1cccc(C(=O)/C=C/c3cccc(C)c3)c1)C2` [8g] came in with an IC50 in data set [1] of 17.8 µM.

Turning to `COc1ccc2c3c1O[C@H]1C[C@@H](O)C=C[C@@]31CCN(Cc1cccc(C(=O)/C=C/c3ccc(C)c(C)c3)c1)C2` [8h], in data set [1], half-maximal inhibition (IC50) was put at 25 µM.

As to `COc1cc(/C=C/C(=O)CC(=O)/C=C/c2ccc(O)c(OC)c2)ccc1O` [CU, (1E,6E)-1,7-Bis(4-hydroxy-3-methoxyphenyl)hepta-1,6-diene-3,5-dione, reference compound], the IC50 in data set [1] is 26.3 µM.

For `COc1ccc2c3c1O[C@H]1C[C@@H](O)C=C[C@@]31CCN(C)C2` [GAL, Galantamine], the half-life in data set [3] was 4.74 h. The IC50 in data set [4] is more than 50 µM. The VDss in data set [5] was 2.30 ^a L/kg. Moreover, in data set [5] (free fraction of drug in plasma), the fu is on record as 0.83 ^a. In data set [5] (total clearance), the CL is reported as 0.336 ^a L/h/kg.
